Results filed as inconclusive are left out. Activity calls are given as the source filed them.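 How the source made its calls: active means Wild-type ribosome reporter drop at least double the humanized mutant ribosome reporter drop, growth loss under a set limit; inconclusive means no clear call, values can overlap the other calls; inactive means the rest.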
Test system: E. coli wild-type GFP strain growth, fluorescence, 24 h
Experiment: wild-type E. coli growth inhibition versus H69 humanized strain – H69 mutant RFP, wild-type GFP, cherry-pick, dose response (AID 977621);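 further: wild-type GFP and H69 mutant RFP strains grown together 50/50 in each well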
[1] = E. coli mixed culture, 24 h, measured here: total growth OD600, test 2

| SMILES | AC50 | AC50 [1] [µM] | further results |
| --- | --- | --- | --- |
| CC(C)Cc1nnc(NS(=O)(=O)c2ccccc2)s1 | > 100 µM (inactive) | – | – |
| CN1OC[C@@H]2CN(C(=O)c3ccco3)[C@H](c3ccc(-c4ccc(C#N)cc4)cc3)C[C@@H]21 | – | > 100 | – |
| COc1ccc(CNC(=O)CSCc2c(F)cccc2Cl)cc1 | – | > 100 | – |
| COc1ccc(OCCC(=O)OCC(=O)NCCC2=CCCCC2)cc1 | – | > 100 | – |
| Fc1ccc(-n2cc(CNCCc3cccnc3)c(-c3ccccc3Cl)n2)cc1 | > 100 µM (inactive) | 27.8 | – |
| O=C(NCc1ccc2c(c1)OCO2)c1sccc1Br | > 100 µM (inactive) | – | – |
| CCc1cc2c(NC(Cc3c[nH]c4ccccc34)C(=O)O)nc(C)nc2s1 (stereo not given) | > 100 µM (inactive) | – | – |
| O=[N+]([O-])c1ccc(N2CCOCC2)c2c1no[n+]2[O-] | > 100 µM (inactive) | – | – |
| CC(C)Oc1ccc(C(=O)Nc2cccc3cccnc23)cc1 | – | > 100 | – |
| CCOc1cccc(-c2cc(-c3n[nH]c(=S)n3CC)c3ccccc3n2)c1 | – | 38.3 | – |
| CC(CCc1ccccc1)NC(=O)CNC(=O)COc1ccccc1 (stereo not given) | – | > 100 | – |
| COCCNc1cc(-c2ccccc2)nc2cc(-c3cccc(F)c3)nn12 | > 100 µM (inactive) | – | – |
| O=C(Nc1cscc1S(=O)(=O)c1ccccc1)c1ccccc1Cl | > 100 µM (inactive) | – | – |
| c1ccc(-n2c(SCc3nc(-c4cccs4)no3)nnc2-c2ccco2)cc1 | > 100 µM (inactive) | 42.5 | – |
| Cc1ccccc1CSCC(=O)Nc1ccccc1F | > 100 µM (inactive) | – | – |
| C[C@@H]1CN([C@H](C)CO)C(=O)c2cccc(NC(=O)c3ccncc3)c2O[C@@H]1CN(C)S(=O)(=O)c1ccc(Cl)cc1 | > 100 µM (inactive) | > 100 | – |
| Cc1ccc(NC(=O)c2ccc(Br)o2)cc1S(=O)(=O)N(C)C | > 100 µM (inactive) | > 100 | – |
| Cc1cccc(CSCC(=O)N2CCN(S(=O)(=O)c3ccccc3C#N)CC2)c1 | > 100 µM (inactive) | – | – |
| CC1CCN(c2ccc3nnc(CCC(=O)Nc4cccc(F)c4)n3n2)CC1 | > 100 µM (inactive) | > 100 | – |
| COc1ccc(OC)c(-c2nnc3n2N=C(c2ccc(OC)c(OC4CCOC4)c2)CS3)c1 (stereo not given) | > 100 µM (inactive) | > 100 | – |
| C=CCn1c(SCc2n[nH]c(=S)n2-c2ccccc2)nnc1-c1ccccc1 | > 100 µM (inactive) | – | – |
| CCOC(=O)c1c(C)nsc1NCc1ccccc1 | – | > 100 | – |
| COC(=O)CN1C(=S)N(c2ccc(Cl)cc2)C(=O)C1CC(=O)Nc1ccc(F)cc1 (stereo not given) | > 100 µM (inactive) | > 100 | – |

| SMILES | AC50 | AC50 [1] [µM] | further results |
| --- | --- | --- | --- |
| Cc1cc(C)c(OCCNC(=O)c2ccccc2Sc2ccccc2C#N)c(C)c1 | > 100 µM (inactive) | – | AC50 (E. coli mixed culture, 24 h, measured here: total growth OD600, test 1): 5.7 µM |
| CCCCNc1ccc2c(c1)OC[C@@H](Cc1ccccc1)NS2(=O)=O | > 100 µM (inactive) | 32.4 | – |
| O=C(O)c1ccc(Oc2ccc([N+](=O)[O-])cc2)c([N+](=O)[O-])c1 | > 100 µM (inactive) | – | – |
| Cc1cccc(C)c1OCc1n[nH]c(=S)n1-c1ccccc1 | > 100 µM (inactive) | 44.8 | – |
| C[C@@H](NC(=O)C[C@@H]1CC[C@@H]2[C@H](COC[C@H](O)CN2C(=O)Nc2cccc(F)c2)O1)c1ccccc1 | > 100 µM (inactive) | – | – |
| Cc1nn2c(NCc3ccccn3)cc(C(C)C)nc2c1-c1ccccc1 | > 100 µM (inactive) | – | – |
| Cc1c(C(=O)NCCSCc2cccc(C(F)(F)F)c2)cnn1-c1ccc(F)cc1 | > 100 µM (inactive) | 17.4 | – |
| Nc1ccccc1C#CC(=O)c1ccccc1 | > 100 µM (inactive) | – | – |
| NC(=O)c1ccsc1NC(=O)COC(=O)CSc1ccc(Cl)cc1 | > 100 µM (inactive) | > 100 | – |
| CSc1ccccc1OCc1cc(C(=O)N[C@H]2CCCCNC2=O)no1 | > 100 µM (inactive) | – | – |
| NC(=O)c1nsc(C(=O)N(c2ccccc2F)C(C(=O)NCc2ccc(F)cc2)c2ccc(O)cc2)c1N (stereo not given) | > 100 µM (inactive) | 47 | – |
| O=c1c2ccccc2nc(SCc2ccccc2)n1CC1CCCO1 (stereo not given) | – | 51.1 | – |
| Cc1cc(NC(=O)COC(=O)CSCc2ccc(Cl)c(Cl)c2)no1 | > 100 µM (inactive) | > 100 | – |
| Cc1cnc(NC(=O)Cc2c[nH]c3ccccc23)s1 | > 100 µM (inactive) | – | – |
| Cc1cc(C)cc(NC(=O)c2cccc(NC(=O)c3ccco3)c2)c1 | – | 45.6 | – |
| O=C(NCCc1ccccn1)c1cccc(S(=O)(=O)N2CCc3ccccc32)c1 | > 100 µM (inactive) | – | – |
| CCN(C(=O)COC(=O)c1ccc([N+](=O)[O-])o1)c1cccc2ccccc12 | > 100 µM (inactive) | – | – |
| COC(=O)c1ccccc1OCCOCCOc1cccc2ccc(C)nc12 | > 100 µM (inactive) | – | – |
| Cc1ccc(SCC(=O)Nc2ccc(S(=O)(=O)Nc3nccs3)cc2)cc1 | > 100 µM (inactive) | – | – |
| CCn1c(SCC(=O)Nc2ccc(OC)cc2)nc2nc3c(cc2c1=O)CCCC3 | – | > 100 | – |
| Cc1ccsc1C(=O)C1CCCN(Cc2cc(F)ccc2-n2cccn2)C1 (stereo not given) | – | > 100 | – |
| CN(Cc1ccccc1)C(=O)c1[nH]cnc1C(=O)NCc1ccccc1 | > 100 µM (inactive) | > 100 | – |
| O=C1c2ccccc2C(c2nnnn2Cc2ccccc2)N1Cc1cccc(F)c1 (stereo not given) | – | > 100 | – |

| SMILES | AC50 | AC50 [1] [µM] | further results |
| --- | --- | --- | --- |
| CO[C@@H]1CN(C)C(=O)c2cc(NC(=O)C3CCCC3)ccc2OC[C@@H](C)N(C(=O)Nc2ccc(C(F)(F)F)cc2)C[C@H]1C | > 100 µM (inactive) | – | – |
| CN(C)CCCn1c(=O)n(Cc2ccco2)c(=O)c2c3c(sc21)CCCCC3 | – | > 100 | – |
| CCCC#C/C(CCC)=C1\c2ccccc2C(=O)N1c1ccccc1 | – | > 100 | – |
| COC(=O)c1sc(-c2ccc(C(C)(C)C)cc2)cc1NC(=O)c1ccccc1C(=O)O | – | > 100 | – |
| COc1ccc(CNc2ncnc3cc(OC)c(OC)cc23)cc1OC | > 100 µM (inactive) | – | – |
| CN(Cc1c(F)cccc1Cl)C(=O)c1ccc(NS(=O)(=O)c2ccc3[nH]c(=O)[nH]c3c2)cc1 | > 100 µM (inactive) | – | – |
| CCOCC(=O)Nc1c(C(=O)Nc2ccc3c(c2)OCCO3)oc2ccccc12 | > 100 µM (inactive) | – | – |
| CCN(c1ccc(OC)cc1)S(=O)(=O)c1cc(-c2cc(C)no2)ccc1OC | > 100 µM (inactive) | 36.8 | – |
| COc1ccc(CNS(=O)(=O)c2ccc3c(c2)NC(=O)C(C)S3)cc1 (stereo not given) | > 100 µM (inactive) | – | – |
| N#CCC(=O)Nc1ccc(C(=O)OCC(=O)Nc2ccc3ccccc3c2)cc1 | > 100 µM (inactive) | – | – |
| Cc1ccc(Nc2cc(C(=O)NCCCN3CCOCC3)c3ccccc3n2)cc1C | > 100 µM (inactive) | – | – |
| CCc1cc2ccc(OC)cc2nc1SCC(=O)N1CCN(C(=O)c2ccco2)CC1 | – | 42.2 | – |
| CC1Cc2cc(S(=O)(=O)N3CCN(c4cccc(Cl)c4)CC3)ccc2N1C(=O)C1CC1 (stereo not given) | – | > 100 | – |
| COc1ccc(OC)c(NC(=O)c2c3c(nc4ccccc24)CCC3)c1 | > 100 µM (inactive) | – | – |
| CCOC(=O)Cc1nnc(NC(=O)CSc2nc3ccccc3[nH]2)s1 | > 100 µM (inactive) | – | – |
| C[C@@H]1CCCCO[C@H](CN(C)C)[C@H](C)CN([C@H](C)CO)C(=O)c2cc(NC(=O)Nc3cccc4ccccc34)ccc2O1 | – | > 100 | – |
| COc1ccc(OCC2c3cc(OC)c(OC)cc3CCN2C(=O)C(C)C)cc1 (stereo not given) | > 100 µM (inactive) | – | – |
| CC(C)(C)N(Cc1ccccc1)C(=O)CN1C(=O)c2ccccc2S1(=O)=O | > 100 µM (inactive) | – | – |
| COc1cccc(C(=O)N2C[C@@H]3[C@H](c4ccccc42)[C@H](CO)N3Cc2ccccc2Cl)c1 | > 100 µM (inactive) | 48.8 | – |
| CN(c1ccccc1)S(=O)(=O)c1cccc(C(=O)OCC(=O)NCc2ccco2)c1 | > 100 µM (inactive) | – | – |
| O=C(COc1cccc2c1CCN(Cc1ccccc1F)C2=O)N1CCCCC1 | > 100 µM (inactive) | – | – |
| Cc1ccc(C(=O)CSc2nnc(COc3cccc4cccnc34)o2)cc1 | > 100 µM (inactive) | 46.3 | – |
| CCc1ccc(C(=O)Nc2cccnc2Oc2ccc(Cl)cc2)cc1 | – | > 100 | – |

| SMILES | AC50 | AC50 [1] [µM] | further results |
| --- | --- | --- | --- |
| NS(=O)(=O)c1cccc(NC(=O)c2cccc(-c3ccc(O)cc3)c2)c1 | > 100 µM (inactive) | – | – |
| COc1ccc(C(=O)N(c2ccccc2)c2nccc3ccccc23)cc1OC | > 100 µM (inactive) | – | – |
| N#Cc1cccc(-c2ccc3c(c2)[C@H]2[C@H](CCN2C(=O)c2ccccc2F)[C@H](CO)N3)c1 | > 100 µM (inactive) | – | – |
| COCC#Cc1ccc2c(c1)O[C@@H](CN(C)S(=O)(=O)c1cccc(F)c1)[C@@H](C)CN([C@H](C)CO)S2(=O)=O | – | 51.3 | – |
| N#Cc1nc(-c2ccco2)oc1NCc1ccccc1Cl | – | 49.6 | – |
| CCC(=O)Nc1nc2ccc(NC(=O)c3cc(OC)c(OC)c(OC)c3)cc2s1 | > 100 µM (inactive) | – | – |
| COc1ccc(NC(=O)c2sccc2-n2cccc2)cc1 | > 100 µM (inactive) | – | – |
| O=C1CC(=O)N(Cc2ccccc2)C(=O)N1CCCCCCN1C(=O)CC(=O)N(Cc2ccccc2)C1=O | – | – | AC50 (measured here: total growth OD600, test 2): > 100 µM |
| O=C(C[C@H]1CC[C@@H]2[C@H](COC[C@@H](O)CN2C(=O)Nc2cc(Cl)cc(Cl)c2)O1)N1CCOCC1 | > 100 µM (inactive) | – | – |
| Cc1cc(C(=O)c2ccc3ccccc3c2)c(C)o1 | > 100 µM (inactive) | – | – |
| COc1ccccc1C1CCN(C(=O)c2ccco2)CC1 | – | > 100 | – |
| CN1C(=O)c2cc(NC(=O)c3cccc(F)c3)ccc2OC[C@H]2O[C@@H](CC(=O)N3CCc4ccccc4C3)CC[C@@H]21 | > 100 µM (inactive) | – | – |
| CC(=O)NCCOc1nc(N2CCCCC2)nc(N2CCCCC2)n1 | – | > 100 | – |
| COc1cc2[nH]c(=S)nc(NCCc3ccc(C)cc3)c2cc1OC | > 100 µM (inactive) | – | – |
| O=C1N[C@@H](Cc2ccccc2)COC(=O)[C@H](Cc2ccc(F)cc2)C/C=C\C[C@H]1CC(=O)N(CCO)Cc1ccccc1 | > 100 µM (inactive) | – | – |
| O=C1c2ccccc2NC(c2cccc(F)c2)N1Cc1ccco1 (stereo not given) | – | 9.09 | – |
| Cc1ccc(C(=O)Nc2ccc3ncccc3c2)cc1 | > 100 µM (inactive) | – | – |
| COc1ccc(CC(=O)Nc2nc(-c3cc(OC)ccc3OC)cs2)cc1 | > 100 µM (inactive) | 20.9 | – |
| Cc1ccc(C#N)c(SCc2ccccc2F)n1 | > 100 µM (inactive) | 34.2 | – |
| O=C(CC1C(=O)N(c2ccc(Cl)cc2)C(=S)N1CCc1ccncc1)Nc1ccc(F)cc1 (stereo not given) | – | 36.4 | – |
| CC(=O)Nc1ccc(S(=O)(=O)Nc2cccc(-c3nc4cc(C)ccc4o3)c2)cc1 | – | > 100 | – |

Source: PubChem BioAssay AID977621 (Broad Institute, 2014)
